Assays:
[1] = biological target: T1, h-NTPDase1 (Homo sapiens, UniProt P49961); parameters: method as in Lecka et al., 2013; details: selective inhibitor of h-NTPDase1; ref Lecka et al., 2013; cited from earlier work
T1 construct: made in house; host or cells: COS-7 cells, transient transfection; crude protein extract after sonication
T1 sequence (P49961 1-510): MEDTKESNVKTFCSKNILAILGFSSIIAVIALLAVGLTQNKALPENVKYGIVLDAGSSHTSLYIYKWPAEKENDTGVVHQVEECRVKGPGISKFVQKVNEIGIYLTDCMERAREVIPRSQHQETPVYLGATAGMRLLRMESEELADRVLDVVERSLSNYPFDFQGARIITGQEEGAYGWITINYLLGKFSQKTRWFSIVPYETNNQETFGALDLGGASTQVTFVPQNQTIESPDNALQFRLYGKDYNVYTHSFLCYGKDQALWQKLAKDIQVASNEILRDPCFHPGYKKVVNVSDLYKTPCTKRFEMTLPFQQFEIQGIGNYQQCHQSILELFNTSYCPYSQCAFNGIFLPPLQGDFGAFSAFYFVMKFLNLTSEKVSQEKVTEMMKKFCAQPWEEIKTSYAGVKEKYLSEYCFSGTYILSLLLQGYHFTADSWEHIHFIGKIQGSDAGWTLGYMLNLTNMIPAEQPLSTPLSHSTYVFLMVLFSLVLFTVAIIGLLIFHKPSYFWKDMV

[2] = tested on: mice pancreatic islets; experiment: Glucose stimulated insulin secretion in isolated mice islets (ELISA); format: cell-based, BALB/c mice; details: 16.7 mM glucose, compound 200 µM, 1 h, 37°C
Protocol: Six to eight week old BALB/c mice, weighing 30–40 g, were used in the study. These mice were obtained from the animal house of COMSATS University Islamabad, Abbottabad Campus and placed under standard temperature (25 ± 2°C) and humidity (50–55%) conditions with an alternate 12-h light/dark cycle. All the experimental animals were provided with a continuous supply of food and water. The animals were handled according to internationally accepted guidelines of animal care and use. Moreover, this study was reviewed and approved by Research Ethics Committee, Department of Pharmacy, COMSATS University Islamabad, Abbottabad Campus. (Protocol number: PHM.Eth./CS-M01-020-1609)
The islets were isolated from mice pancreas as previously described, by a process involving collagenase digestion ([Hameed et al., 2018]). Briefly, mice were anesthetized with sodium thiopental (30 mg kg) and sacrificed by cervical dislocation to block the flow of blood. Immediately, mice were transferred to biological hood and their abdominal cavity was opened completely by making an incision on abdomen. In order to stop the bile flow toward duodenum, ampulla was located and clamped under dissection microscope. Then, distention of pancreas was carried out by injecting 3 ml of collagenase solution (1 mg/ml) through common bile duct. The distended pancreas was removed as a whole, transferred to a 50 ml tube and digested in collagenase solution at 37°C. After 15 min, digestion was stopped by placing the tube on ice and 20 ml of Hank’s Balanced Salt Solution (HBSS) was added to it. Thus the digested islets were washed with HBSS (two to three times) by centrifugation (1,000 rpm) for 1 min at 4°C. Finally, islets were purified by passing through a cell strainer (70 µm) and isolated manually (by hand picking) under stereomicroscope (Euromex, Arnhem, Netherlands). All the purification and isolation procedures were carried out in HBSS, containing no magnesium, calcium and phenol red.
Krebs-Ringer bicarbonate buffer (KRBB) was used as an incubation medium for islets and was composed of NaCl (118 mM), KCl (4.7 mM), CaCl2 (1.9 mM), MgSO4 (1.2 mM), NaHCO3 (25 mM), 4-(2-hydroxyethyl)-1-piperazineethanesulfonic acid (HEPES, 10 mM) and bovine serum albumin (0.1%). The pH of KRBB was maintained at 7.4. The isolated islets were size-matched and pre-incubated (3 islets/tube) for 45 min at 37°C in KRBB, supplemented with 3 mM glucose. Thereafter, incubation medium was replaced with fresh KRBB (containing 16.7 mM glucose) and islets were incubated for 60 min at 37°C with or without test substance(s). After incubation, supernatant was collected and stored at −40°C until further use. Finally, collected samples were properly diluted and insulin secretion was estimated with ultra-sensitive mouse insulin ELISA kit (Crystal Chem Inc., Downers Grove, United States) according to the manufacturer’s instructions. The absorbance was measured at 450 nm and insulin secretion was normalized for number of islets used. ([Hameed et al., 2018]).

Row | SMILES | Ki [1] | Effect on glucose stimulated insulin secretion [2]
1 | CCCCSc1nc2c(N)ncnc2n1[C@@H]1O[C@H](COP(=O)(O)OP(=O)(O)OP(=O)(O)O)[C@@H](O)[C@H]1O [8-Bus-ATP] | 800 ± 200 nM | 
2 | O=C1Nc2ccccc2C1=O [isatin] |  | Neither suramin nor isatin had any significant effect

Source: PMC7734281, “Functionalized Oxoindolin Hydrazine Carbothioamide Derivatives as Highly Potent Inhibitors of Nucleoside Triphosphate Diphosphohydrolases” (Frontiers in Pharmacology, 2020)
